Test results as given in publication PMC2962730 (Journal of neurochemistry, 2010).
Where a chain is given by its changes, count along the chain named.

Legend:
hVAChT Y60A [1] = target: T1, hVAChT Y60A (Homo sapiens, UniProt Q16572, Y60A); assay: [3H]vesamicol saturation binding; conditions: pH 7.4
T1 sequence (Q16572 1-532 Y60A): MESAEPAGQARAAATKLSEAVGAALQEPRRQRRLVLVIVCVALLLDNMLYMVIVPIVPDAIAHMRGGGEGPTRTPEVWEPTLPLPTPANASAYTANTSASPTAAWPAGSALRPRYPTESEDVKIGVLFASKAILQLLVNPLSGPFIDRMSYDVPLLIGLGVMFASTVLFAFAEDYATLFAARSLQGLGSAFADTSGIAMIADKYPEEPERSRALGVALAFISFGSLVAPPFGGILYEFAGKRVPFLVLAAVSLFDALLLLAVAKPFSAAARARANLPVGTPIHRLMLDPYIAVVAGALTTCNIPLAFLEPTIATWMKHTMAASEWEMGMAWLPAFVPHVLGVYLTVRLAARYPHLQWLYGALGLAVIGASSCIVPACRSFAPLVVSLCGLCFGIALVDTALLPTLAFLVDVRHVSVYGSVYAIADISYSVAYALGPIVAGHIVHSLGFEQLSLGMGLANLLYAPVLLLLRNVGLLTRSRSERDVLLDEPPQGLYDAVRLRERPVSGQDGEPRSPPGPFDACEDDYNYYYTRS

hVAChT W331A [2] = target: T2, hVAChT W331A (Homo sapiens, UniProt Q16572, W331A); assay: [3H]vesamicol saturation binding; conditions: pH 7.4
T2 sequence (Q16572 1-532 W331A): T1 sequence (Q16572 1-532 Y60A) with A60Y, W331A

hVAChT C388A = target: T3, hVAChT C388A (Homo sapiens, UniProt Q16572, C388A); assay: [3H]vesamicol saturation binding; conditions: pH 7.4
T3 sequence (Q16572 1-532 C388A): T1 sequence (Q16572 1-532 Y60A) with A60Y, C388A

hVAChT F392A = target: T4, hVAChT F392A (Homo sapiens, UniProt Q16572, F392A); assay: [3H]vesamicol saturation binding; conditions: pH 7.4
T4 sequence (Q16572 1-532 F392A): T1 sequence (Q16572 1-532 Y60A) with A60Y, F392A

hVAChT Y60A [3] = target: T1, hVAChT Y60A; assay: [3H]ACh transport; format: biochemical
hVAChT W325H = target: T5, hVAChT W325H (Homo sapiens, UniProt Q16572, W325H); assay: [3H]ACh transport; format: biochemical
T5 sequence (Q16572 1-532 W325H): T1 sequence (Q16572 1-532 Y60A) with A60Y, W325H

hVAChT W331A [4] = target: T2, hVAChT W331A; assay: ACh equilibrium binding by competition against [3H]vesamicol
[5] = read-out: KM, Michaelis-Menten constant for ACh transport, pH 7.4

Row | Vmax/Bmax, ACh transport normalized to Bmax (hVAChT Y60A [3]; pH 7.4) | Km (hVAChT Y60A [3]; [5]) | Vmax/Bmax, ACh transport normalized to Bmax (hVAChT W325H; pH 7.4) | Km (hVAChT W325H; [5]) | ACh bound more weakly than by wild-type (hVAChT W331A [4]; W331A hVAChT vs wild-type) | FHA, fraction of the ACh sites that have high affinity (hVAChT W331A [4]; W331A hVAChT, pH 7.4, monophasic fit, FHA fixed to 1) | SMILES | Bmax, maximal specific [3H]vesamicol binding (VAChT expression level) (hVAChT Y60A [1]) | Bmax, maximal specific [3H]vesamicol binding (VAChT expression level) (hVAChT W331A [2]) | Bmax, maximal specific [3H]vesamicol binding (VAChT expression level) (hVAChT C388A) | Bmax, maximal specific [3H]vesamicol binding (VAChT expression level) (hVAChT F392A)
1 | – | – | – | – | – | – | O[C@@H]1CCCC[C@H]1N1CCC(c2ccccc2)CC1 (racemic) [vesamicol, ( )-trans-2-(4-phenylpiperidino)cyclohexanol] | 31 ± 2 pmol/mg | 37 ± 2 pmol/mg | 59 ± 1 pmol/mg | 93 ± 5 pmol/mg
2 | 4.7 ± 0.8 min⁻¹ | 480 ± 320 µM | 6.5 ± 1.1 min⁻¹ | 480 ± 170 µM | 11 fold | 1.0 | CC(=O)OCC[N+](C)(C)C [ACh, acetylcholine] | – | – | – | –
